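Here, GI50 denotes the concentration required for 50% inhibition of growth. TGI: total growth inhibition.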
What was measured:
Assay in all cases: NCI-60 cell line screen, 384-well format
SF-539 CNS = system: SF-539 CNS
SK-MEL-28 melanoma = system: SK-MEL-28 melanoma
HCC-2998 colon = system: HCC-2998 colon
NCI-H522 lung = system: NCI-H522 lung
NCI-H460 NSCLC = system: NCI-H460 NSCLC
NCI-H322M lung = system: NCI-H322M lung
SNB-75 CNS = system: SNB-75 CNS
OVCAR-3 ovarian = system: OVCAR-3 ovarian
SK-OV-3 ovarian = system: SK-OV-3 ovarian
SN12C renal = system: SN12C renal
HCT-15 colon = system: HCT-15 colon
BT-549 breast = system: BT-549 breast
RPMI-8226 leukemia = system: RPMI-8226 leukemia
HT29 colon = system: HT29 colon
HL-60(TB) leukemia = system: HL-60(TB) leukemia
MDA-MB-231 breast = system: MDA-MB-231 breast
HS 578T breast = system: HS 578T breast
SF-268 CNS = system: SF-268 CNS
M14 melanoma = system: M14 melanoma
OVCAR-8 ovarian = system: OVCAR-8 ovarian
SNB-19 CNS = system: SNB-19 CNS
COLO 205 colon = system: COLO 205 colon
LOX IMVI melanoma = system: LOX IMVI melanoma
MALME-3M melanoma = system: MALME-3M melanoma
MCF7 breast = system: MCF7 breast
RXF 393 renal = system: RXF 393 renal
SR leukemia = system: SR leukemia
NCI-H226 lung = system: NCI-H226 lung
KM12 colon = system: KM12 colon

SMILES: CN(C[C@@H]1COCCO1)S(=O)(=O)Nc1ccc2ccc3ncc(-c4cnn(C)c4)cc3c(=O)c2c1
- GI50 (SF-539 CNS): 1.63 µM
- TGI (SF-539 CNS): 15.2 µM
- GI50 (SK-MEL-28 melanoma): > 100 µM
- TGI (SK-MEL-28 melanoma): > 100 µM
- GI50 (HCC-2998 colon): 39.6 µM
- TGI (HCC-2998 colon): > 100 µM
- GI50 (NCI-H522 lung): 2.68 µM
- TGI (NCI-H522 lung): 9.07 µM
- GI50 (NCI-H460 NSCLC): 3.45 µM
- TGI (NCI-H460 NSCLC): 62.1 µM
- GI50 (NCI-H322M lung): 4.99 µM
- TGI (NCI-H322M lung): > 100 µM
- GI50 (SNB-75 CNS): 2.18 µM
- TGI (SNB-75 CNS): 21.5 µM
- GI50 (OVCAR-3 ovarian): 12.3 µM
- TGI (OVCAR-3 ovarian): > 100 µM
- GI50 (SK-OV-3 ovarian): 1.45 µM
- TGI (SK-OV-3 ovarian): 14.5 µM
- GI50 (SN12C renal): 1.64 µM
- TGI (SN12C renal): 8.8 µM
- GI50 (HCT-15 colon): 3.09 µM
- TGI (HCT-15 colon): > 100 µM
- GI50 (BT-549 breast): 2.1 µM
- TGI (BT-549 breast): 45.5 µM
- GI50 (RPMI-8226 leukemia): 1.36 µM
- TGI (RPMI-8226 leukemia): 5.21 µM
- GI50 (HT29 colon): 14.4 µM
- TGI (HT29 colon): > 100 µM
- GI50 (HL-60(TB) leukemia): 3.32 µM
- TGI (HL-60(TB) leukemia): 21 µM
- GI50 (MDA-MB-231 breast): 8.45 µM
- TGI (MDA-MB-231 breast): > 100 µM
- GI50 (HS 578T breast): 1.99 µM
- TGI (HS 578T breast): 8.1 µM
- GI50 (SF-268 CNS): 5.68 µM
- TGI (SF-268 CNS): > 100 µM
- GI50 (M14 melanoma): 3.67 µM
- TGI (M14 melanoma): > 100 µM
- GI50 (OVCAR-8 ovarian): 6.02 µM
- TGI (OVCAR-8 ovarian): > 100 µM
- GI50 (SNB-19 CNS): 27.2 µM
- TGI (SNB-19 CNS): > 100 µM
- GI50 (COLO 205 colon): 24.4 µM
- TGI (COLO 205 colon): > 100 µM
- GI50 (LOX IMVI melanoma): 5.53 µM
- TGI (LOX IMVI melanoma): > 100 µM
- GI50 (MALME-3M melanoma): 3.48 µM
- TGI (MALME-3M melanoma): 73.6 µM
- GI50 (MCF7 breast): 5.9 µM
- TGI (MCF7 breast): > 100 µM
- GI50 (RXF 393 renal): 5.6 µM
- TGI (RXF 393 renal): > 100 µM
- GI50 (SR leukemia): 2.49 µM
- TGI (SR leukemia): 7.48 µM
- GI50 (NCI-H226 lung): 1.77 µM
- TGI (NCI-H226 lung): > 100 µM
- GI50 (KM12 colon): 0.31 µM
- TGI (KM12 colon): > 100 µM
